# Laboratory results reported in paper PMC9315496, “A Comparison of the Photophysical, Electrochemical and Cytotoxic Properties of meso-(2-, 3- and 4-Pyridyl)-BODIPYs and Their Derivatives” (Sensors (Basel, Switzerland), 2022).
# Where two headings read alike, the source gives them in different places. Marks after values point to notes of the source that are not given here.
# Key:
# [1] = UV-vis absorption and emission spectroscopy, relative fluorescence quantum yields; format: physicochemical; details: for λabs / λem: room temperature; for Фf (relative fluorescence quantum yield): standard rhodamine-6G (Ф = 0.86) in methanol, λexc = 473 nm; for Φf (relative fluorescence quantum yield): standard Ru(bpy)Cl2.6H2O (Φf = 0.028) in H2O, λexc = 436 nm; for bathochromic shift of maximum absorption wavelength upon methylation: acetonitrile, experimental; for fluorescence enhancement relative to the non-chlorinated pyridinium BODIPY: water
# Description: UV−vis absorption spectra were collected on a Varian Cary 50 Bio spectrophotometer. Emission spectra were obtained on a PerkinElmer LS55 spectrophotometer, at room temperature. Spectrophotometric grade solvents and quartz cuvettes (1 cm path length) were used. Relative fluorescence quantum yields (Φf) were calculated using rhodamine 6G (Φf = 0.86 in methanol) as reference for the neutral BODIPYs and Ru(bpy)Cl2.6H2O (Φf = 0.028 in water) as the standard for the cationic BODIPYs using the following equation: Φx = Φst × Gradx/Gradst × (ηx/ηst)^2, where the ΦX and ΦST are the quantum yields of the sample and standard, GradX and GradST are the gradients from the plot of integrated fluorescence intensity vs. absorbance, and η represents the refractive index of the solvent (x is for the sample and st for the standard).
# [2] = tested on: HEp2 cells; test: Dark cytotoxicity, Cell Titer Blue; format: cell-based; details: Homo sapiens, HEp-2, 24 h incubation, read-out: Dark Toxicity (IC50)
# Description: (§1) Human carcinoma HEp2 cells were obtained from ATCC and maintained in a 75 cm^2 flask (Chemglass) with 1× MEM (Eagle’s minimal essential medium) containing 10% FBS (fetal bovine serum) and 1% antibiotic (penicillin–streptomycin) in a humidified, 5% CO2 incubator at 37 °C. Stock solutions with a concentration of 32 mM in DMSO were prepared for each BODIPY. The stock solution was diluted to the final working concentrations with culture medium. The HEp2 cells were plated at 7500–10,000 cells per well in a Costar 96-well plate and allowed to grow for 24 h. The BODIPY stock solution was diluted to a 200 μM working solution and two-fold serial dilutions were prepared with final concentrations of 200, 100, 50, 25, 12.5, 6.25, and 0 μM. Each BODIPY was incubated for 24 h at 37 °C under 5% CO2. For the dark cytotoxicity experiments, after incubation, excess BODIPY was removed by washing the cells three times with 1× PBS (phosphate-buffered saline) and replacing with media containing 20% Cell Titer Blue (Promega, Madison, WI, USA). The cells were then incubated for additional 24 h at 37 °C under 5% CO2 and the cell toxicity was determined by fluorescence intensity at ex 570/em 615 nm using a FluoStar Optima microplate reader (BMG Labtech, Cary, NC, USA).
# [3] = tested on: HEp2 cells; test: Phototoxicity (1.5 J/cm^2), Cell Titer Blue; format: cell-based; details: Homo sapiens, HEp-2, light or radiation study, light dose 1.5 J/cm^2
# Description: as §1
# For the phototoxicity experiments, after incubation the cells were exposed to a light dose of ~1.5 J/cm^2 generated using a 600 W Quartz Tungsten Halogen lamp (Newport Corporation, Irvine, CA, USA). The cells were exposed for 20 min while the 96-well plate rested on an EchoTherm chilling plate (Torrey Pines Scientific, Carlsbad, CA, USA) set to 5 °C. Following light exposure, the loading media was removed and media containing 20% Cell Titer Blue was added. After incubation for 24 h at 37 °C under 5% CO2, the cell viability was determined as described above.
# [4] = Cyclic voltammetry; format: physicochemical
# Text: Cyclic voltammograms were collected on a Biologic SP-300 potentiostat using a three-electrode setup with a platinum working electrode (2 mm diameter, CH Instruments), platinum counter electrode (2 mm diameter, CH Instruments), and a silver wire pseudo reference-electrode stored in 0.25 M NBu4PF6 in anhydrous acetonitrile and separated from the electrochemical cell by a glass frit. The electrochemical cell was composed of a borosilicate glass scintillation vial with a custom-machined cap. Working electrodes were polished and then pre-treated by cycling between upper and lower boundaries of the electrochemical window for the experiment in a solution containing only the electrolyte. Measurements were taken in a solution of 0.25 M recrystallized NBu4PF6 in dried and degassed anhydrous acetonitrile. BODIPYs were added to 5 mL of electrolyte solution to give a concentration of 1 mM. Each solution also contained 1 mM ferrocene as an internal reference. Solutions were sparged with N2 before each measurement.
# [5] = cited from earlier work
# [6] = vs. Fc^+/Fc, 100 mV/s, acetonitrile, 0.25 M NBu4PF6
# [7] = vs. Fc^+/Fc, 100 mV/s, acetonitrile, 0.25 M NBu4PF6, PF6^− counterion
smiles,measurement,setting,value
"CC1=C(Cl)C(C)=[N+]2C1=C(c1ccccn1)c1c(C)c(Cl)c(C)n1[B-]2(F)F [2PyCl2, 2,6-Dichloro-8-(2-pyridyl)-1,3,5,7-tetramethyl-BODIPY]",Stokes Shift,[1]; CH3CN,15 nm
same,ε (molar extinction coefficient),[1]; CH3CN,"64,280 M^−1 cm ^−1"
same,λabs,[1]; CH3CN,530 nm
same,λem,[1]; CH3CN,545 nm
same,Stokes Shift,[1]; CH3OH,17 nm
same,labs,[1]; CH3OH,531 nm
same,lem,[1]; CH3OH,548 nm
same,ε (molar extinction coefficient),[1]; CH3OH,69940 M-1 cm -1
same,Фf (relative fluorescence quantum yield),[1]; CH3OH,0.23
same,IC50,[2],> 200 µM
same,IC50,[3],> 100 µM
CC1=CC(C)=[N+]2C1=C(c1ccccn1)c1c(C)cc(C)n1[B-]2(F)F [2Py],Stokes Shift,[1]; CH3CN,12 nm
same,ε (molar extinction coefficient),[1]; CH3CN,"87,500 M^−1 cm ^−1"
same,λabs,[1]; CH3CN,502 nm
same,λem,[1]; CH3CN,514 nm
same,Stokes Shift,[1]; CH3OH,10 nm
same,labs,[1]; CH3OH,504 nm
same,lem,[1]; CH3OH,514 nm
same,ε (molar extinction coefficient),[1]; CH3OH,119800 M-1 cm -1
same,Фf (relative fluorescence quantum yield),[1]; CH3OH,0.13
same,IC50,[2],> 200 µM
same,IC50,[3],> 100 µM
"CC1=CC(C)=[N+]2C1=C(c1cccc[n+]1C)c1c(C)cc(C)n1[B-]2(F)F [2catPy, 1,3,5,7-Tetramethyl-8-(N-methyl-2-pyridyl)-BODIPY Iodide]",Stokes Shift,[1]; CH3CN,24 nm
same,ε (molar extinction coefficient),[1]; CH3CN,"65,800 M^−1 cm ^−1"
same,λabs,[1]; CH3CN,520 nm
same,λem,[1]; CH3CN,544 nm
same,Φf (relative fluorescence quantum yield),[1]; CH3CN,0.13 ^b
same,Stokes Shift,[1]; H2O,22 nm
same,ε (molar extinction coefficient),[1]; H2O,"52,380 M^−1 cm ^−1"
same,λabs,[1]; H2O,520 nm
same,λem,[1]; H2O,542 nm
same,Φf (relative fluorescence quantum yield),[1]; H2O,0.001 ^b
same,bathochromic shift of maximum absorption wavelength upon methylation,[1],18 nm
same,IC50,[2],> 200 µM
same,"first reduction, more negative than the two-electron reduction in 4catPy",[4],30 mV
same,oxidation potential shift positive compared with 4catPy and 3catPy,[4],100 mV
same,"second reduction, more negative than the two-electron reduction in 4catPy",[4],230 mV
same,"E1/2red, first one-electron reduction",[4]; [6],−1.09 V
same,"E1/2red, second one-electron reduction",[4]; [6],−1.29 V
same,E1/2ox,[4]; [7],~+0.99 ^a V
same,IC50,[3],> 100 µM
"CC1=C(Cl)C(C)=[N+]2C1=C(c1cccc[n+]1C)c1c(C)c(Cl)c(C)n1[B-]2(F)F [2catPyCl2, 2,6-Dichloro-8-(N-methyl-2-pyridyl)-1,3,5,7-tetramethyl-BODIPY]",Stokes Shift,[1]; CH3CN,17 nm
same,ε (molar extinction coefficient),[1]; CH3CN,"19,420 M^−1 cm ^−1"
same,λabs,[1]; CH3CN,530 nm
same,λem,[1]; CH3CN,547 nm
same,Φf (relative fluorescence quantum yield),[1]; CH3CN,0.17 ^b
same,Stokes Shift,[1]; H2O,22 nm
same,ε (molar extinction coefficient),[1]; H2O,"21,000 M^−1 cm ^−1"
same,λabs,[1]; H2O,555 nm
same,λem,[1]; H2O,577 nm
same,Φf (relative fluorescence quantum yield),[1]; H2O,0.24
same,Φf (relative fluorescence quantum yield),"[1]; H2O, listed as 2catPyCl2 (I^−)",0.24 ^b
same,fluorescence enhancement relative to the non-chlorinated pyridinium BODIPY,[1],over 200 fold
same,IC50,[2],80 µM
same,first reduction wave shift positive compared with the unchlorinated BODIPY,[4],220 mV
same,second reduction wave shift positive compared with the unchlorinated BODIPY,[4],130 mV
same,anodic peak shift positive compared with the corresponding unchlorinated BODIPY,[4]; 100 mV/s,70 mV
same,"E1/2red, first one-electron reduction",[4]; [6],−0.87 V
same,"E1/2red, second one-electron reduction",[4]; [6],−1.16 V
same,E1/2ox,"[4]; vs. Fc^+/Fc, value at 10 V/s, acetonitrile, 0.25 M NBu4PF6",+1.10 ^b V
same,IC50,[3],80 µM
"CC1=C(Cl)C(C)=[N+]2C1=C(c1cccnc1)c1c(C)c(Cl)c(C)n1[B-]2(F)F [3PyCl2, 2,6-Dichloro-8-(3-pyridyl)-1,3,5,7-tetramethyl-BODIPY]",Stokes Shift,[1]; CH3CN,15 nm
same,ε (molar extinction coefficient),[1]; CH3CN,"57,540 M^−1 cm ^−1"
same,λabs,[1]; CH3CN,527 nm
same,λem,[1]; CH3CN,542 nm
same,Stokes Shift,[1]; CH3OH,16 nm
same,labs,[1]; CH3OH,530 nm
same,lem,[1]; CH3OH,546 nm
same,ε (molar extinction coefficient),[1]; CH3OH,66880 M-1 cm -1
same,Фf (relative fluorescence quantum yield),[1]; CH3OH,0.57
same,IC50,[2],200 µM
same,IC50,[3],> 100 µM
CC1=CC(C)=[N+]2C1=C(c1cccnc1)c1c(C)cc(C)n1[B-]2(F)F [3Py],Stokes Shift,[1]; CH3CN,12 nm
same,ε (molar extinction coefficient),[1]; CH3CN,"92,900 M^−1 cm ^−1"
same,λabs,[1]; CH3CN,502 nm
same,λem,[1]; CH3CN,514 nm
same,Stokes Shift,[1]; CH3OH,12 nm
same,labs,[1]; CH3OH,503 nm
same,lem,[1]; CH3OH,515 nm
same,ε (molar extinction coefficient),[1]; CH3OH,98140 M-1 cm -1
same,Фf (relative fluorescence quantum yield),[1]; CH3OH,0.34
same,IC50,[2],> 200 µM
same,IC50,[3],> 100 µM
"CC1=CC(C)=[N+]2C1=C(c1ccc[n+](C)c1)c1c(C)cc(C)n1[B-]2(F)F [3catPy, 1,3,5,7-Tetramethyl-8-(N-methyl-3-pyridyl)-BODIPY Iodide]",Stokes Shift,[1]; CH3CN,22 nm
same,ε (molar extinction coefficient),[1]; CH3CN,"65,460 M^−1 cm ^−1"
same,λabs,[1]; CH3CN,510 nm
same,λem,[1]; CH3CN,532 nm
same,Φf (relative fluorescence quantum yield),[1]; CH3CN,0.006
same,Φf (relative fluorescence quantum yield),"[1]; CH3CN, listed as 3catPy (I^−)",0.006 ^b
same,Stokes Shift,[1]; H2O,20 nm
same,ε (molar extinction coefficient),[1]; H2O,"37,320 M^−1 cm ^−1"
same,λabs,[1]; H2O,510 nm
same,λem,[1]; H2O,530 nm
same,Φf (relative fluorescence quantum yield),[1]; H2O,0.005 ^b
same,bathochromic shift of maximum absorption wavelength upon methylation,[1],8 nm
same,IC50,[2],> 200 µM
same,"first reduction, more negative than the two-electron reduction in 4catPy",[4],200 mV
same,"second reduction, more negative than the two-electron reduction in 4catPy",[4],480 mV
same,"E1/2red, first one-electron reduction",[4]; [6],−1.26 V
same,"E1/2red, second one-electron reduction",[4]; [6],−1.54 V
same,E1/2ox,[4]; [7],+0.89 V
same,IC50,[3],> 100 µM
CC1=C(Cl)C(C)=[N+]2C1=C(c1ccncc1)c1c(C)c(Cl)c(C)n1[B-]2(F)F [4PyCl2],Stokes Shift,[5]; CH3CN,18 nm
same,Φf (fluorescence quantum yield),[5]; CH3CN,0.58
same,ε (molar extinction coefficient),[5]; CH3CN,"50,800 M^−1 cm ^−1"
same,λabs,[5]; CH3CN,528 nm
same,λem,[5]; CH3CN,546 nm
CC1=CC(C)=[N+]2C1=C(c1ccncc1)c1c(C)cc(C)n1[B-]2(F)F [4Py],IC50,[2],> 200 µM
same,Stokes Shift,[5]; CH3CN,14 nm
same,Φf (fluorescence quantum yield),[5]; CH3CN,0.31
same,ε (molar extinction coefficient),[5]; CH3CN,"72,100 M^−1 cm ^−1"
same,λabs,[5]; CH3CN,501 nm
same,λem,[5]; CH3CN,515 nm
same,IC50,[3],> 100 µM
CC1=C(Cl)C(C)=[N+]2C1=C(c1cc[n+](C)cc1)c1c(C)c(Cl)c(C)n1[B-]2(F)F [4catPyCl2],fluorescence enhancement relative to the non-chlorinated pyridinium BODIPY,[1],10 fold
same,Stokes Shift,[5]; CH3CN,62 nm
same,Φf (fluorescence quantum yield),[5]; CH3CN,0.048
same,ε (molar extinction coefficient),[5]; CH3CN,"23,400 M^−1 cm ^−1"
same,λabs,[5]; CH3CN,538 nm
same,λem,[5]; CH3CN,600 nm
same,Stokes Shift,[5]; H2O,65 nm
same,Φf (fluorescence quantum yield),[5]; H2O,0.038
same,ε (molar extinction coefficient),[5]; H2O,"11,640 M^−1 cm ^−1"
same,λabs,[5]; H2O,540 nm
same,λem,[5]; H2O,605 nm
same,two-electron reduction shift positive compared with 4catPy,[4],180 mV
same,anodic peak shift positive compared with the corresponding unchlorinated BODIPY,[4]; 100 mV/s,180 mV
same,"E1/2red, two-electron reduction to doubly reduced state",[4]; [6],−0.89 ^e V
same,E1/2ox,"[4]; vs. Fc^+/Fc, value at 1 V/s, acetonitrile, 0.25 M NBu4PF6",+1.03 ^d V
"O.O.O.O.O.O.[Cl-].[Cl-].[Ru+2].c1ccc(-c2ccccn2)nc1.c1ccc(-c2ccccn2)nc1.c1ccc(-c2ccccn2)nc1 [Ru(bpy)Cl2.6H2O, reference compound]",Φf of the reference standard,[5]; in water,0.028
"CC/N=c1\cc2oc3cc(NCC)c(C)cc3c(-c3ccccc3C(=O)OCC)c-2cc1C [rhodamine 6G, reference compound]",Φf of the reference standard,[5]; in methanol,0.86
